{
  "source": "paper PMC6332318",
  "about": "“Synthetic Development of New 3-(4-Arylmethylamino)butyl-5-arylidene-rhodanines under Microwave Irradiation and Their Effects on Tumor Cell Lines and against Protein Kinases” (Molecules, 2015)",
  "key": {"SsCK1δ/ε": {"biological_target": "SsCK1δ/ε", "assay": "protein kinase assay, [γ-33P] ATP", "format": "biochemical, porcine", "conditions": "15 μM ATP; CKS peptide substrate; >10 = inhibitory but IC50 > 10 μM", "experimental": "(§1) Then, we evaluated the intermediates salts 6a–f and fourteen final compounds 9a–n on four protein kinases: HsCDK5-p25 (cyclin-dependant kinase 5-p25), SsGSK-3α/β (glycogen synthase kinase-3α/β) SsCK1δ/ε (Caseine kinase 1) and HsHaspin as an essential mitotic kinase. All assays were run in the presence of 15 μM of ATP and appropriate substrates. IC50 values were determined from dose-response curves. Concerning the library of the fourteen (5Z) 3-(4-arylmethylamino)butyl-5-arylidene-2-thioxo-1,3-thiazolidine-4-ones 9a–n and also the six diamines salts 6a–f, the results are given in Table 3. […] It is interesting to note that these two compounds are respectively substituted with an hydroxyl function on para-position of the 5-arylidene moiety and also with a similar bulky group (1,3-benzodioxol-5-yl for 9j and 2,3-dihydro-benzo[1,4]dioxin-6-yl for 9n) on the arylmethylamino moiety grafted on the N-3 butyl chain.\n(§2) Kinase activities for each enzyme were assayed in buffer A (25 mM Tris-HCl pH 7.5, 10 mM MgCl2, 1 mM EGTA, 1 mM DTT, 50 µg/mL Heparin, BSA 0.15 mg/mL) or B (60 mM β-glycerophosphate, 30 mM p-Nitrophenylphosphate, 25 mM MOPS, 5 mM EGTA, 15 mM MgCl2, 1 mM DTT, 0.1 mM Na vanadate), with their corresponding substrates, in the presence of 15 µM [γ-^33P] ATP (3000 Ci/mmol; 10 mCi/mL) in a final volume of 30 µL. After 30 min incubation at 30 °C, the reaction was stopped by harvesting, using a FilterMate harvester (Packard, Meriden, CT, USA), onto P81 phosphocellulose papers (GE Healthcare, Velizy-Villacoublay, France) which were washed in 1% phosphoric acid. Scintillation fluid was added and the radioactivity measured in a Packard counter. Blank values were subtracted and activities calculated as pmoles of phosphate incorporated during the 30 min incubation. The activities were expressed in a percentage of the maximal activity, i.e., in the absence of inhibitors. Controls were performed with appropriate dilutions of DMSO. CK1 and Haspin peptide substrates were obtained from Proteogenix (Oberhausbergen, France).\nCasein kinase 1 (CK1δ/ε) (porcine brain, native) was assayed with 0.67 µg of CKS peptide ([…]pSAYSITA)."}, "HsHaspin": {"biological_target": "T1, HsHaspin (Homo sapiens, UniProt Q8TF76)", "T1 construct": "HsHaspin-kd aa 470 to 798; GST (from vector pGEX-6P-3; tag and N-terminal position are own knowledge of the vector) (N); made in house; host or cells: Escherichia coli BL21-KRX", "T1 sequence (Q8TF76 470-798)": "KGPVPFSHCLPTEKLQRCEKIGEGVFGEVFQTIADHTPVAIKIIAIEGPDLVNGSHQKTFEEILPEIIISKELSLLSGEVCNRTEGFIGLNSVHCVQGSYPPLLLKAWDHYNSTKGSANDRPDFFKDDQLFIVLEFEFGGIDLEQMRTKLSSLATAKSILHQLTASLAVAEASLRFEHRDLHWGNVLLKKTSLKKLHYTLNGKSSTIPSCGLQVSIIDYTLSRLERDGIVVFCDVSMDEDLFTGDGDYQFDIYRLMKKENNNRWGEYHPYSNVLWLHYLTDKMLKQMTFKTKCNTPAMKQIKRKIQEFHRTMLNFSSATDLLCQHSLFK", "assay": "protein kinase assay, [γ-33P] ATP", "format": "biochemical", "experimental": "Then, we evaluated the intermediates salts 6a–f and fourteen final compounds 9a–n on four protein kinases: HsCDK5-p25 (cyclin-dependant kinase 5-p25), SsGSK-3α/β (glycogen synthase kinase-3α/β) SsCK1δ/ε (Caseine kinase 1) and HsHaspin as an essential mitotic kinase. […] IC50 values were determined from dose-response curves.\nas §2, with “ATP” for “Kinase activities for each enzyme were assayed in buffer A (25 mM Tris-HCl pH 7.5, 10 mM MgCl2, 1 mM EGTA, 1 mM DTT, 50 µg/mL Heparin, BSA 0.15 mg/mL) or B (60 mM β-glycerophosphate, 30 mM p-Nitrophenylphosphate, 25 mM MOPS, 5 mM EGTA, 15 mM MgCl2, 1 mM DTT, 0.1 mM Na vanadate), with their corresponding substrates, in the presence of 15 µM [γ-^33P] ATP”\nHaspin kinase domain (HsHaspin-kd aa 470 to 798) encoding cDNA, obtain by RT-PCR, was cloned into pGex-6P-3. The fusion protein was expressed in Escherichia coli strain BL21-KRX (Promega, Madison, WI, USA) and purified by affinity chromatography on glutathione-agarose beads (Sigma). Haspin-kd activity was assayed with 3 µM Histone H3 (1-21) peptide, a specific Haspin substrate, ([…]), in Buffer H (MOPS 25 mM pH 7.5; 10 mM MgCl2)."}, "HsCDK5/p25": {"biological_target": "T2, HsCDK5/p25 (Homo sapiens, UniProt Q00535)", "T2 construct": "made in house", "T2 sequence (Q00535 whole entry)": "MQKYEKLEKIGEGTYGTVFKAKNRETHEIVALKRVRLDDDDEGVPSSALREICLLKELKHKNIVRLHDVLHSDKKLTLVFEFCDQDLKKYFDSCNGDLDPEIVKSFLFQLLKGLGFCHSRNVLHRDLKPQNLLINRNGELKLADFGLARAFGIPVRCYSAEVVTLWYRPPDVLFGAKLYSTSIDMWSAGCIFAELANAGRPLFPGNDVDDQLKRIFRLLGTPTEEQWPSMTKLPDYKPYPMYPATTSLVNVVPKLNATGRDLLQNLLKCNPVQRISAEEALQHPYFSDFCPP", "T2 sequence (Q15078 99-307 partner limits assumed)": "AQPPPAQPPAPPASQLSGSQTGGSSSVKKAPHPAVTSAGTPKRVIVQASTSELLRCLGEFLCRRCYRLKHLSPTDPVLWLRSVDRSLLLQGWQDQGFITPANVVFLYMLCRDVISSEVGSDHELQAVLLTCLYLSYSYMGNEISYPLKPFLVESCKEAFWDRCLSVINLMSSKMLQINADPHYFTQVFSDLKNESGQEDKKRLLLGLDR", "assay": "protein kinase assay, [γ-33P] ATP", "format": "biochemical", "experimental": "as §1, §2\nCDK5/p25 (human, recombinant) was prepared as previously described. […]"}},
  "note": "pIC50: −log10 of the molar value.",
  "data": [
    {"compound": "COc1cc(/C=C2\\SC(=S)N(CCCCNCc3ccc4c(c3)OCCO4)C2=O)ccc1O", "note": "[Compound 9n, (5Z)3-[4-(2,3-Dihydro-benzo[1,4]dioxin-6-ylmethylamino)butyl]-5-(4-hydroxy-3-methoxybenzylidene)-2-thioxo-1,3-thiazolidin-4-one]", "values": [
      {"measurement": "pIC50", "setting": "SsCK1δ/ε", "value": 5.70},
      {"measurement": "pIC50", "setting": "HsHaspin", "value": "< 5.00"},
      {"measurement": "melting point", "value": "202 to 204", "unit": "°C"}
    ]},
    {"compound": "O=C1/C(=C/c2ccc3c(c2)OCO3)SC(=S)N1CCCCNCc1ccc2c(c1)OCO2", "note": "[Compound 9h, (5Z)3-[4-(1,3-Benzodioxol-5-ylmethylamino)butyl]-5-(1,3-benzodioxol-5-ylmethylene)-2-thioxo-1,3-thiazolidin-4-one]", "values": [
      {"measurement": "pIC50", "setting": "HsCDK5/p25", "value": 5.96},
      {"measurement": "pIC50", "setting": "SsCK1δ/ε", "value": 5.18},
      {"measurement": "pIC50", "setting": "HsHaspin", "value": "< 5.00"},
      {"measurement": "melting point", "value": "245 to 256", "unit": "°C"}
    ]},
    {"compound": "O=C1/C(=C/c2ccc3c(c2)OCCO3)SC(=S)N1CCCCNCc1ccc2c(c1)OCO2", "note": "[Compound 9i, (5Z)3-[4-(1,3-Benzodioxol-5-ylmethylamino)butyl]-5-(2,3-dihydro-1,4-benzodioxin-6-ylmethylene)-2-thioxo-1,3-thiazolidin-4-one]", "values": [
      {"measurement": "pIC50", "setting": "HsCDK5/p25", "value": 5.89},
      {"measurement": "pIC50", "setting": "SsCK1δ/ε", "value": 5.27},
      {"measurement": "pIC50", "setting": "HsHaspin", "value": "< 5.00"},
      {"measurement": "melting point", "value": "253 to 257", "unit": "°C"}
    ]},
    {"compound": "O=C1/C(=C/c2ccc(O)cc2)SC(=S)N1CCCCNCc1ccc2c(c1)OCO2", "note": "[Compound 9j, (5Z)3-[4-(1,3-Benzodioxol-5-ylmethylamino)butyl]-5-(4-hydroxy-benzylidene)-2-thioxo-1,3-thiazolidin-4-one]", "values": [
      {"measurement": "pIC50", "setting": "HsCDK5/p25", "value": "< 5.00"},
      {"measurement": "pIC50", "setting": "SsCK1δ/ε", "value": 5.85},
      {"measurement": "pIC50", "setting": "HsHaspin", "value": "< 5.00"}
    ]}
  ]
}
